Measured values from patent US20040005291A1, “Methods for regulating co-stimulatory molecule expression with reactive oxygen” (priority 2001, published 2004).

Legend:
Fas and B7 = Fas and B7 levels in cells in the presence of 2-deoxyglucose; type: cell-based; conditions: cells where glucose cannot bind to its receptor
Description: […] Cells were then harvested, stained with fluorescent labeled anti-Fas, or with isotype controls as indicated. […] Data were analyzed using Becton Dickinson CellQuest software.

B7 on MCF7 cells = conditions: H2O2 at subcytotoxic levels
Excerpt: We added H2O2 (at subcytotoxic levels) directly to cells (MCF7, HL60, U937, and neural cells PC12 and PC12Trk^15) in culture to see if this caused changes in B7 expression.

[1] = system: B7.1 on keratinocyte cell line; conditions: mouse keratinocyte cell line, 0.25 mM H2O2, 12 or 24 hours
Description: (§1) A mouse keratinocyte cell line was incubated with or without 0.25 mM Hydrogen Peroxide (H2O2) for 12 or 24 hours. Then the level of B7.1 and Fas were evaluated. The data is attached as FIGS. 3A and 3B.

[2] = system: Fas on keratinocyte cell line; conditions: mouse keratinocyte cell line, 0.25 mM H2O2, 12 or 24 hours
Description: as §1

B7.2 on HL60 cells = conditions: 0.25 mM H202, 48 hours
Description: (§2) The cells were then exposed to 200 mW of low frequency microwaves for 30 minutes, 1 hour, or 3 hours. Cells were then stained with DCF-DA (Molecular Probes, Inc. Eugene, Oreg.) as an indicator of relative levels of H202. Cells were also stained with fluorescent labeled antibodies to human B7.2 (Pharmingen, Inc.), versus fluorescent labeled, isotype matched control antibodies, upper panels, left and right, respectively. Indicated levels represent the ratio of specific B7.2 stain over the fluorescently labeled isotype control for each condition. Replicate samples, microwaved for the indicated time periods, were subsequently cultured for an additional 21 hours and stained for H202 and B7.2, as indicated, lower panels. Cells were analyzed flow cytometrically using a Coulter Excel Flow Cytometer. Data were analyzed using Becton Dickinson CellQuest software.
(§3) Methods: Human myelocyte cells U937, HL60, PC12, and PC12Trk cells were cultured in the presence of subcytotoxic doses (0.25 mM) of H202 for 48 hours, harvested and stained with isotype controls or fluorescent labeled anti-B7.2 as described in Example 1. Cells were analyzed flow cytometrically using a Coulter Excel Flow Cytometer. Data were analyzed using Becton Dickinson CellQuest software.

B7.2 on U937 cells = conditions: 0.25 mM H202, 48 hours
Description: as §2, §3

[3] = system: B7.2 on PC12Trk neural cell line; conditions: PC12Trk cells, 0.25 mM H202, 48 hours
Description: as §2, §3

[4] = system: B7.2 on PC12 neural cell line; conditions: PC12 cells, 0.25 mM H202, 48 hours
Description: as §2, §3

[5] = system: co-stimulatory molecules in neural stem cells
[6] = system: reactive oxygen in neural stem cells; conditions: DCF-DA stain, FIG. 4
Description: FIG. 4 is a graph depicting the effects of ethanol in neural stem cells. The cells were stained with DCF-DA.
Methods: Neural stem cells were treated as described above.

Fas on HL60 cells = experiment: Cell surface Fas expression, flow cytometry with anti-Fas; type: cell-based
Description: Methods: HL60 cells were incubated with insulin or under in conditions of low glucose overnight. Cells were then harvested, stained with fluorescent labeled anti-Fas, or with isotype controls as indicated. […] Data were analyzed using Becton Dickinson CellQuest software.

O=CC[C@@H](O)[C@H](O)[C@H](O)CO [2-deoxyglucose]
levels of these molecules (Fas and B7) (Fas and B7): substantial reductions

OO [H2O2, Hydrogen Peroxide]
B7 expression (B7 on MCF7 cells): increase in B7
level of expression of B7.1 [1]: increases
level of expression of Fas [2]: increases
cell surface expression of B7.2 (B7.2 on HL60 cells): increased cell surface expression of B7.2
cell surface expression of B7.2 (B7.2 on U937 cells): increased cell surface expression of B7.2
cell surface expression of B7.2 [3]: increased cell surface expression of B7.2
cell surface expression of B7.2 [4]: increased cell surface expression of B7.2

CCO [alcohol, ethanol]
induction of co-stimulatory molecules [5]: increased induction of co-stimulatory molecules
reactive oxygen [6]: increase reactive oxygen

insulin
cell surface Fas expression (Fas on HL60 cells; HL60 cells incubated with insulin overnight): loss of cell surface Fas expression
reduction of levels of Fas (Fas on HL60 cells; addition of insulin to cells in culture): ten-fold
